Here are results for one molecule from patent US20250205158A1, “BIODEGRADABLE LIPIDS AND FORMULATIONS FOR DELIVERY OF MRNA” (Massachusetts Institute of Technology, priority 2023, published 2025).

Assay [1] relates to mice. How it is done: Evaluation of the LNPs via intramuscular injection. The in vivo potency of the ionizable lipids was screened through intramuscular injection of LNPs loaded with mRNA encoding firefly luciferase protein. These LNPs were formulated with a molar composition of (35:16:46.5:2.5) using one of the synthesized ionizable lipids, DOPE as a helper lipid, cholesterol, and DMPE-PEG respectively. mRNA-loaded LNPs were intramuscularly administered in mice at a dose of 1 μg, and expression of luciferase protein was monitored at 6 hours via IVIS bioluminescent imaging (FIG. 3). […] Without wishing to be bound by theory, increased levels of protein expression may enhance the response to vaccination.
In Vitro and In Vivo Screening of AMG Lipid Library. Following synthesis, the mRNA delivery efficacy of the AMG lipids was evaluated through both in vitro and in vivo screens. To screen the first generation of AMG lipids (FIGS. 11B and 11C), firefly luciferase (FLuc) mRNA was encapsulated into LNPs using a previously reported formulation containing ionizable lipid, 1,2-dioleoyl-sn-glycero-3-phosphoethanolamine (DOPE), cholesterol, and 1,2-dimyristoyl-rac-glycero-3-methoxypolyethylene glycol-2000 (DMG-PEG).^19 C2C12 myoblast cells were treated with these LNPs and FLuc expression was evaluated at 24 hrs. (FIG. 16). […] Each of these batches was then injected IM into the quadriceps of mice, and expression was characterized via IVIS imaging (Screen 1, FIG. 11E).
AMG lipids for enhanced mRNA delivery and improved tolerability. A rational design approach was used to further vary the ionizable lipid structure to enhance the mRNA delivery and immunogenicity. […] The lipid tail structure was varied to promote efficient LNP self-assembly while simultaneously promoting endosomal membrane disruption.^18 Monounsaturated (G41-G44) or fully saturated (GC12-GC18) lipid tails were developed. […] Without wishing to be bound by any particular theory, tail length may impact membrane fusion and endosomal escape.^10,11
Next, the headgroup was further modified to further improve delivery. Headgroups play a multifunctional role including enhancing LNP-mRNA interactions, promoting membrane-LNP fusion and endosomal escape which all contribute to mRNA delivery.^23 A series of similar aza-crown ethers were used to further investigate structure-activity relationship and enhance mRNA delivery. These headgroups featured between three and eight nitrogens linked by varying length of methylene chains. Each of these headgroups were reacted with tail G41 to synthesize a next generation of AMG lipids, which were then formulated with FLuc mRNA and evaluated for mRNA delivery following IM administration in mice (FIG. 12B).

In assay [2] the test system is mice. The assay can be described thus: IFN-γ ELISpot and supernatant cytokines of peptide-stimulated splenocytes after HA mRNA vaccination. It is filed as in vivo, BALB/cJ and C57B1/6J mice. How it is done:
Further experiments to evaluate the dose-sparing potential of AMG1541 were performed for influenza vaccination.^34,35 The immunogenicity of AMG1541 was compared to the clinical benchmark SM-102 by formulating each into LNPs containing hemagglutinin (HA) (A/Tasmania/503/2020 H3N2) mRNA. BALB/cJ mice were vaccinated with […] of these mRNA LNPs and the quality of humoral and cellular immunity following vaccination was evaluated. Enhancing each component of immunity contributes to improving vaccine protection—humoral immunity provides protection against initial infection while cellular immunity improves the clearance of breakthrough infections. […] Male and female mice vaccinated with AMG1541 had 15.8- and 6.8-fold higher endpoint titers, respectively (FIG. 13C). […] Serum cytokines were examined 6 hours after the boost dose to determine whether the enhanced immunogenicity of AMG1541 also led to increased systemic inflammation (FIGS. 20A-20C). […]
IFN-γ ELISpot. […] Cells were then pelleted, resuspended in PBS+1% BSA, and counted using a countess 3 automated cell counter (ThermoFisher). […]
Luminex. […] The supernatants from the stimulated splenocytes used for the ELISpot assay were analyzed using Eve Technologies' Mouse High Sensitivity 18-Plex Discovery Assay® (MilliporeSigma, Burlington, Massachusetts, USA) according to the manufacturer's protocol. […]

Turning to `CCCCCC/C=C\CCCC(=O)OCC(O)CN1CCN(CC(O)COC(=O)CCC/C=C\CCCCCC)CCN(CC(O)COC(=O)CCC/C=C\CCCCCC)CCN(CC(O)COC(=O)CCC/C=C\CCCCCC)CCN(CC(O)COC(=O)CCC/C=C\CCCCCC)CCN(CC(O)COC(=O)CCC/C=C\CCCCCC)CC1` (stereo not shown) [AMG1541], in the assay on mice [1] (IM, 1 μg, 6 hours), the “fold higher expression compared to AMG104” value is 4.5 fold, the “fold higher in vivo mRNA transfection compared to SM-102” value was found to be 3.5 fold and the “fold improvement in expression over cKK-E12” value amounted to 1.7 fold. In the assay with mice [1] (mouse, in vivo), the “potency in intramuscular administration of mRNA compared to SM-102 and ALC-0315” value is given as “equal or higher potency”; the “times higher in vivo mRNA delivery compared to FDA-approved counterparts” value is given as “approximately three”. Further, the “cytokines in media from splenocytes stimulated with MHC-binding peptides” value in the assay on mice [2] (BALB/cJ mice, HA mRNA, dose=1 μg) is “significant upregulation of IL-4, and IL-5 in both male and female mice and IL-10 in female mice”. The “fold more Spot Forming Units (SFU) relative to SM-102” value in the assay on mice [2] (IFN-γ ELISpot, MHC-I stimulated splenocytes, female C57B1/6J mice) was 6.6 fold.
